According to patent US6849598B1, “Therapeutic compositions comprising bactericidal/permeability-increasing (BPI) protein products” (XOMA, priority 1995, dated 2005):

System: P. aeruginosa (ATCC 19660)
Assay: Antibiotic susceptibility (MIC, Microscan® MIC Plus Type 2 panel) with rBPI21/P123 and EDTA
Assay type: cell-based
Parameters: key to susceptibility interpretation of MIC (superscript): R: resistant; I: intermediate; S: susceptible
Conditions: for effect of EDTA added to the rBPI21/P123 formulation on susceptibility of the strain to the antibiotic: summary of Table 17
Description: In additional experiments, a BPI protein product, rBPI21, was formulated with an anti-bacterial activity enhancing poloxamer, specifically PLURONIC P123, and with various concentrations of EDTA, and was evaluated for its effect on the antibiotic susceptibility of a Pseudomonas aeruginosa (ATCC 19660). Antibiotic susceptibility was determined using Microscan® panel plates (Dade Microscan, West Sacramento, Calif.) that allow simultaneous determination of minimum inhibitory concentrations for a number of different antibiotics.
The antimicrobial susceptibility tests performed on the Microscan® panel plates are miniaturizations of the broth dilution susceptibility test. Antimicrobial agents are serially diluted in Mueller-Hinton broth (supplemented with calcium and magnesium, or with sodium chloride for oxacillin, or with thymidine phosphorylase for trimethoprim, sulfamethoxazole and trimethoprim/ sulfamethoxazole) to concentrations bridging the range of clinical interest. One well on the 96-well Microscan® plate is a growth control well that contains dehydrated broth only. The remaining wells contain dehydrated broth and antibiotic (or broth and biochemical reagent indicator), which is rehydrated to the desired concentration by inoculation of a standardized suspension of test organism. The chromogenic biochemical agent indicators are used to identify and characterize the species of bacteria based on detection of pH changes and substrate utilization. […] Gram-negative and gram positive organisms may be tested using any of the Microscan® panel plates (Microscan®, Dade Microscan, West Sacramento, Calif.). In these experiments with P. aeruginosa, the MIC Plus Type 2 panel plates were used. The concentrations of antibiotics tested in this panel plate are shown below in Table 16. The antibiotic susceptibility standards (interpretation of an MIC as resistant, intermediate or susceptible according to Microscan®'s NCCLS-derived standards) applicable to the gram-negative organisms that may be tested in each panel plate appear below in Table 16A.
For these experiments with P. aeruginosa, the following procedure was performed: The organism was streaked onto TSA plates (Remel, Lenexa, Kans.) and incubated for 18-24 hours overnight. Well-isolated A, colonies from the plates were emulsified in 3 ml of sterile Inoculum Water d(catalog no. B1015-2, MicrosScan® system, Dade Microscan, West Sacramento, Calif.) to a final turbidity equivalent to 0.5 McFarland Barium Sulfate standard. This cell suspension was vortexed for 2 to 3 seconds and 100 μl was transferred to glass tubes containing 25 ml of Inoculum Water with Pluronic-D (catalog no. B1015-7, MicroScan® system, Dade Microscan, West Sacramento, Calif.) (hereinafter “Pluronic Inoculum Water”), or 25 ml of Pluronic Inoculum Water into which rBPI21 in 0.2% PLURONIC P123, 0.002% TWEEN 80, 5mM sodium citrate, 150 mM NaCl (“rBPI21/P123”) had been diluted to 64 μg/ml rBPI21.
The 25 ml of this inoculum containing rBPI21 was mixed by inversion and poured into a tray. The inoculum was drawn up into a manual 96-well pipetting system (RENOK^− rehydrator-inoculator system, Dade Microscan, West Sacramento, Calif.) designed for use with the Microscan® panel plates, and 110 μl of the inoculum was delivered to each well of a Microscan® MIC Plus Type 2 panel plate. When added to the wells, this inoculum achieves a final bacterial concentration of 4×10^5 to 7×10^5 CFU/ml. The panel plates were then incubated at 35° C. for 15-24 hours and read visually for cell growth.
No growth was defined as a slight whiteness in the well or a clear broth. Growth appeared as turbidity which could take the form of a white haze throughout the well, a white button in the center of the well, or a fine granule growth throughout the well. All wells were read against a black indirectly lighted background. Visual results of the biochemical reactions were read into a database for bacterial identification.

[1] = rBPI21/P123 at 64 μg/ml rBPI21, With 0% EDTA
[2] = rBPI21/P123 at 64 μg/ml rBPI21, With 0.01% EDTA
[3] = rBPI21/P123 at 64 μg/ml rBPI21, With 0.05% EDTA
[4] = rBPI21/P123 at 64 μg/ml rBPI21, With 0.1% EDTA

CCN1CCN(C(=O)N[C@@H](C(=O)N[C@@H]2C(=O)N3C(C(=O)O)=C(CSc4nnnn4C)CS[C@H]23)c2ccc(O)cc2)C(=O)C1=O [Cefoperazone]
Minimum Inhibitory Concentration of Antibiotic (Control (No BPI21)): < 4 µg/mL | susceptibility interpretation of MIC (superscript) (Control (No BPI21)): S | Minimum Inhibitory Concentration of Antibiotic [1]: < 4 µg/mL | susceptibility interpretation of MIC (superscript) [1]: S | Minimum Inhibitory Concentration of Antibiotic [2]: < 4 µg/mL | susceptibility interpretation of MIC (superscript) [2]: S | Minimum Inhibitory Concentration of Antibiotic [3]: < 4 µg/mL | susceptibility interpretation of MIC (superscript) [3]: S | Minimum Inhibitory Concentration of Antibiotic [4]: < 4 µg/mL | susceptibility interpretation of MIC (superscript) [4]: S

CC1(C)S[C@@H]2[C@H](NC(=O)C(C(=O)O)c3ccccc3)C(=O)N2[C@H]1C(=O)O (stereo partly drawn) [Carbenicillin]
Minimum Inhibitory Concentration of Antibiotic (Control (No BPI21)): 32 µg/mL | susceptibility interpretation of MIC (superscript) (Control (No BPI21)): I | Minimum Inhibitory Concentration of Antibiotic [1]: < 16 µg/mL | susceptibility interpretation of MIC (superscript) [1]: S | Minimum Inhibitory Concentration of Antibiotic [2]: < 16 µg/mL | susceptibility interpretation of MIC (superscript) [2]: S | Minimum Inhibitory Concentration of Antibiotic [3]: < 16 µg/mL | susceptibility interpretation of MIC (superscript) [3]: S | Minimum Inhibitory Concentration of Antibiotic [4]: < 16 µg/mL | susceptibility interpretation of MIC (superscript) [4]: S

CC1(C)S[C@@H]2[C@H](NC(=O)[C@H](NC(=O)N3CCNC3=O)c3ccccc3)C(=O)N2[C@H]1C(=O)O [Azlocillin]
Minimum Inhibitory Concentration of Antibiotic (Control (No BPI21)): < 64 µg/mL | susceptibility interpretation of MIC (superscript) (Control (No BPI21)): S | Minimum Inhibitory Concentration of Antibiotic [1]: < 64 µg/mL | susceptibility interpretation of MIC (superscript) [1]: S | Minimum Inhibitory Concentration of Antibiotic [2]: < 64 µg/mL | susceptibility interpretation of MIC (superscript) [2]: S | Minimum Inhibitory Concentration of Antibiotic [3]: < 64 µg/mL | susceptibility interpretation of MIC (superscript) [3]: S | Minimum Inhibitory Concentration of Antibiotic [4]: < 64 µg/mL | susceptibility interpretation of MIC (superscript) [4]: S

Cn1nnnc1SCC1=C(C(=O)O)N2C(=O)[C@@H](NC(=O)[C@H](O)c3ccccc3)[C@H]2SC1 [Cefamandole]
Minimum Inhibitory Concentration of Antibiotic (Control (No BPI21)): > 32 µg/mL | susceptibility interpretation of MIC (superscript) (Control (No BPI21)): R | Minimum Inhibitory Concentration of Antibiotic [1]: > 32 µg/mL | susceptibility interpretation of MIC (superscript) [1]: R | Minimum Inhibitory Concentration of Antibiotic [2]: > 32 µg/mL | susceptibility interpretation of MIC (superscript) [2]: R | Minimum Inhibitory Concentration of Antibiotic [3]: > 32 µg/mL | susceptibility interpretation of MIC (superscript) [3]: R | Minimum Inhibitory Concentration of Antibiotic [4]: < 4 µg/mL | susceptibility interpretation of MIC (superscript) [4]: S | effect of EDTA added to the rBPI21/P123 formulation on susceptibility of the strain to the antibiotic: reversing resistance

CO[C@@]1(NC(=O)C2SC(=C(C(N)=O)C(=O)O)S2)C(=O)N2C(C(=O)O)=C(CSc3nnnn3C)CS[C@@H]21 (stereo partly drawn) [Cefotetan]
Minimum Inhibitory Concentration of Antibiotic (Control (No BPI21)): > 32 µg/mL | susceptibility interpretation of MIC (superscript) (Control (No BPI21)): R | Minimum Inhibitory Concentration of Antibiotic [1]: > 32 µg/mL | susceptibility interpretation of MIC (superscript) [1]: R | Minimum Inhibitory Concentration of Antibiotic [2]: < 4 µg/mL | susceptibility interpretation of MIC (superscript) [2]: S | Minimum Inhibitory Concentration of Antibiotic [3]: < 4 µg/mL | susceptibility interpretation of MIC (superscript) [3]: S | Minimum Inhibitory Concentration of Antibiotic [4]: < 4 µg/mL | susceptibility interpretation of MIC (superscript) [4]: S

CC1(C)S[C@@H]2[C@H](NC(=O)[C@H](NC(=O)N3CCN(S(C)(=O)=O)C3=O)c3ccccc3)C(=O)N2[C@H]1C(=O)O [Mezlocillin]
Minimum Inhibitory Concentration of Antibiotic (Control (No BPI21)): < 16 µg/mL | susceptibility interpretation of MIC (superscript) (Control (No BPI21)): S | Minimum Inhibitory Concentration of Antibiotic [1]: < 16 µg/mL | susceptibility interpretation of MIC (superscript) [1]: S | Minimum Inhibitory Concentration of Antibiotic [2]: < 16 µg/mL | susceptibility interpretation of MIC (superscript) [2]: S | Minimum Inhibitory Concentration of Antibiotic [3]: < 16 µg/mL | susceptibility interpretation of MIC (superscript) [3]: S | Minimum Inhibitory Concentration of Antibiotic [4]: < 16 µg/mL | susceptibility interpretation of MIC (superscript) [4]: S

C[C@H]1[C@H](NC(=O)/C(=N\OC(C)(C)C(=O)O)c2csc(N)n2)C(=O)N1S(=O)(=O)O [Aztreonam]
Minimum Inhibitory Concentration of Antibiotic (Control (No BPI21)): 4 µg/mL | susceptibility interpretation of MIC (superscript) (Control (No BPI21)): S | Minimum Inhibitory Concentration of Antibiotic [1]: 4 µg/mL | susceptibility interpretation of MIC (superscript) [1]: S | Minimum Inhibitory Concentration of Antibiotic [2]: < 1 µg/mL | susceptibility interpretation of MIC (superscript) [2]: S | Minimum Inhibitory Concentration of Antibiotic [3]: 2 µg/mL | susceptibility interpretation of MIC (superscript) [3]: S | Minimum Inhibitory Concentration of Antibiotic [4]: < 1 µg/mL | susceptibility interpretation of MIC (superscript) [4]: S | effect of EDTA added to the rBPI21/P123 formulation on susceptibility of the strain to the antibiotic: increasing the susceptibility

CC1(C)S[C@@H]2[C@H](NC(=O)[C@H](C(=O)O)c3ccsc3)C(=O)N2[C@H]1C(=O)O [Ticarcillin]
Minimum Inhibitory Concentration of Antibiotic (Control (No BPI21)): < 16 µg/mL | susceptibility interpretation of MIC (superscript) (Control (No BPI21)): S | Minimum Inhibitory Concentration of Antibiotic [1]: < 16 µg/mL | susceptibility interpretation of MIC (superscript) [1]: S | Minimum Inhibitory Concentration of Antibiotic [2]: < 16 µg/mL | susceptibility interpretation of MIC (superscript) [2]: S | Minimum Inhibitory Concentration of Antibiotic [3]: < 16 µg/mL | susceptibility interpretation of MIC (superscript) [3]: S | Minimum Inhibitory Concentration of Antibiotic [4]: < 16 µg/mL | susceptibility interpretation of MIC (superscript) [4]: S

CCN[C@@H]1C[C@H](N)[C@@H](O[C@H]2OC(CN)=CC[C@H]2N)[C@H](O)[C@H]1O[C@H]1OC[C@](C)(O)[C@H](NC)[C@H]1O [Netilmicin]
Minimum Inhibitory Concentration of Antibiotic (Control (No BPI21)): 4 µg/mL | susceptibility interpretation of MIC (superscript) (Control (No BPI21)): S | Minimum Inhibitory Concentration of Antibiotic [1]: < 2 µg/mL | susceptibility interpretation of MIC (superscript) [1]: S | Minimum Inhibitory Concentration of Antibiotic [2]: < 2 µg/mL | susceptibility interpretation of MIC (superscript) [2]: S | Minimum Inhibitory Concentration of Antibiotic [3]: < 2 µg/mL | susceptibility interpretation of MIC (superscript) [3]: S | Minimum Inhibitory Concentration of Antibiotic [4]: < 2 µg/mL | susceptibility interpretation of MIC (superscript) [4]: S

Ticarcillin/K Clavulanate [Ticar/K Clavulanate]
Minimum Inhibitory Concentration of Antibiotic (Control (No BPI21)): < 16 µg/mL | susceptibility interpretation of MIC (superscript) (Control (No BPI21)): S | Minimum Inhibitory Concentration of Antibiotic [1]: < 16 µg/mL | susceptibility interpretation of MIC (superscript) [1]: S | Minimum Inhibitory Concentration of Antibiotic [2]: < 16 µg/mL | susceptibility interpretation of MIC (superscript) [2]: S | Minimum Inhibitory Concentration of Antibiotic [3]: < 16 µg/mL | susceptibility interpretation of MIC (superscript) [3]: S | Minimum Inhibitory Concentration of Antibiotic [4]: < 16 µg/mL | susceptibility interpretation of MIC (superscript) [4]: S
